In patent publication US12414952B2 (Merck Sharp & Dohme LLC, priority 2018, dated 2025) one finds IC50 data, which are given here for 41 compounds.

Test [1] addresses human A2a adenosine receptor (Homo sapiens (Human), UniProt P29274). Kind of test: A2a binding affinity using radioligand binding, Method (A). The note with it: Method (A): [3H]SCH58261 filtration binding. An excerpt: The A2a receptor affinity binding assay measured the amount of binding of a tritiated ligand with high affinity for the A2a adenosine receptor to membranes made from HEK293 or CHO cells recombinantly expressing the human A2a adenosine receptor, in the presence of varying concentrations of a compound of the invention. The data were generated using either filtration binding or a homogenous scintillation proximity assay (SPA).
Method (A): Measurement of A2a Binding Affinity Using Radioligand Binding
148 μL (5 μg/mL) membranes (Perkin Elmer, Cat. No. RBHA2aM400UA) and 2 μL compounds of the invention to be tested (test compound) were transferred to individual wells of a 96-well polypropylene assay plate and incubated for 15 to 30 min at room temperature. [^3H] SCH58261 ((7-(2-phenylethyl)-5-amino-2-(2-furyl)-pyrazolo-[4,3-e]-1,2,4-triazolo[1,5-c]pyrimidine)) was diluted in assay buffer (50 mM Tris pH 7.4, 10 mM MgCl2, 0.005% Tween20) to a concentration of 4 nM and 50 μL transferred to each well of the assay plate. […] The assay plate was incubated at room temperature for 60 min with agitation. […] Filtering was achieved by aspirating the contents of the assay plate for 5 sec, then washing and aspirating the contents three times with ice-cooled wash buffer (50 mM Tris-HCl pH 7.4, 150 mM NaCl) and allowing the vacuum manifold to dry the plate for […]. The filter plate was incubated for at least 1 h at 55° C. and allowed to dry. The bottom of the filter plate was sealed with backing tape. […] The plate was incubated for at least 20 min, and then the amount of radioactivity remaining in each well was determined using a TopCount® (Perkin Elmer) scintillation counter. After normalization to total and non-specific binding, the percent effect at each compound concentration was calculated. The plot of percent effect versus the log of compound concentration was analyzed electronically using a 4-parameter logistic fit based on the Levenberg-Marquardt algorithm to generate IC50 values.

Test [2] deals with human A2b adenosine receptor (Homo sapiens (Human), UniProt P29275). Kind of test: A2b binding affinity, radioligand filtration binding assay. The note with it: tritiated proprietary A2b antagonist, HEK293 membranes. The method, then: Measurement of A2b Binding Affinity
The reported affinity of the compounds of the invention for the human A2b adenosine receptor was determined experimentally using a radioligand filtration binding assay. This assay measures the amount of binding of a tritiated proprietary A2b receptor antagonist, in the presence and absence of a compound of the invention, to membranes made from HEK293 cells recombinantly expressing the human A2b adenosine receptor (Perkin Elmer, Cat. No. ES-013-C).
The filter plate was incubated for at least 1 h at 55° C. and allowed to dry. The bottom of the filter plate was then sealed with backing tape. […] The plates were then incubated for at least 20 min, and then the amount of radioactivity remaining in each well was determined using a TopCount® (Perkin Elmer) scintillation counter. After normalization to total and non-specific binding, the percent effect at each compound concentration was calculated. The plot of percent effect versus the log of compound concentration was analyzed electronically using a 4-parameter logistic fit based on the Levenberg-Marquardt algorithm to generate IC50 values.

Structures are written as SMILES.

human A2b adenosine receptor, sequence (P29275 whole entry): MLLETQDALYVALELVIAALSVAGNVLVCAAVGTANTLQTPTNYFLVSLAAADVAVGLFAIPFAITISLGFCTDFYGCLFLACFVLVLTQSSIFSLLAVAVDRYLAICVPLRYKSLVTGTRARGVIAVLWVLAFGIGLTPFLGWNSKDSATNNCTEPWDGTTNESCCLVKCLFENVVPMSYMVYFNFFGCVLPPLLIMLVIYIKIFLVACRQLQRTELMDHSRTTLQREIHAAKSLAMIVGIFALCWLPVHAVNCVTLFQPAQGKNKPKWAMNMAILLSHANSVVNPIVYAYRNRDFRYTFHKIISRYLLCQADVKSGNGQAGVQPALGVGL
human A2a adenosine receptor, sequence (P29274 whole entry): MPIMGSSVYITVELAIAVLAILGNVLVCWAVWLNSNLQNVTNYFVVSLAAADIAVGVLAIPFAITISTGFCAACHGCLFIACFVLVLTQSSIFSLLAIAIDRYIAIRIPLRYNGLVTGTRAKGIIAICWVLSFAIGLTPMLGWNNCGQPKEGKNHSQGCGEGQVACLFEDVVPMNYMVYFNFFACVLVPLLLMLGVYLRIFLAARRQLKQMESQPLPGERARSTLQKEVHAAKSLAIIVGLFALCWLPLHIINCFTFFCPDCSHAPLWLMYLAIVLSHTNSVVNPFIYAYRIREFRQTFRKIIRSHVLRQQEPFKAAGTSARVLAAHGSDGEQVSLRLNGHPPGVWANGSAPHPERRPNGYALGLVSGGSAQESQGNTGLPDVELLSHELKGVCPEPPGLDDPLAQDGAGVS

One may read the IC50 as the concentration that inhibits the measured activity by half. Read a high IC50 as weaker potency in that assay. Turning to `Cc1c(-c2ncco2)nc(N)n2nc(CCN3Cc4nnn(C(C)C)c4C(C)C3)nc12` (single isomer, unassigned) [Example 17.8-1, (R or S)-2-(2-(1-isopropyl-7-methyl-1,4,6,7-tetrahydro-5H-[1,2,3]triazolo[4,5-c]pyridin-5-yl)ethyl)-8-methyl-7-(oxazol-2-yl)-[1,2,4]triazolo[1,5-c]pyrimidin-5-amine], the concentration for half-maximal inhibition (IC50) was 0.7 nM in test [1] and 1680 nM in test [2].

As for `Cc1c(-c2ncco2)nc(N)n2nc(CCN3Cc4nnn(C(C)C)c4C(C)C3)nc12` (single isomer, unassigned) [Example 17.8-2, (R or S)-2-(2-(1-isopropyl-7-methyl-1,4,6,7-tetrahydro-5H-[1,2,3]triazolo[4,5-c]pyridin-5-yl)ethyl)-8-methyl-7-(oxazol-2-yl)-[1,2,4]triazolo[1,5-c]pyrimidin-5-amine], the half-inhibitory concentration (IC50) in test [1] was 2.3 nM; in test [2], 14 nM.

Take `Cc1c(-c2ncco2)nc(N)n2nc(CCN3CCn4c(cnc4C(C)C)C3)nc12` [Example 1.10]: the concentration for half-maximal inhibition (IC50) in test [1] is 2.1 nM; in test [2] it was 16.2 nM.

On to `Cc1c(-c2ncco2)nc(N)n2nc(CCN3CCn4c(cnc4C4CCC4)C3)nc12` [Example 1.11], for which the IC50 is 3.6 nM in test [1] and 56.3 nM in test [2].

On to `Cc1c(-c2ncco2)nc(N)n2nc(CCN3CCn4c(cnc4C4CC4)C3)nc12` [Example 1.12], for which the IC50 was found to be 4.8 nM in test [1] and 218 nM in test [2].

For the compound `Cc1c(-c2ncco2)nc(N)n2nc(CCN3CCc4c(cnn4C4CCC4)C3)nc12` [Example 1.13], the concentration for half-maximal inhibition (IC50) was found to be 1 nM in test [1] and 144 nM in test [2].

Take `Cc1c(-c2ncco2)nc(N)n2nc(CCN3CCc4nn(C5CCC5)cc4C3)nc12` [Example 1.14]: the IC50 in test [1] was 6.7 nM; in test [2], 399 nM.

As to `Cc1c(-c2ncco2)nc(N)n2nc(CCN3CCc4c(nnn4C(C)C)C3)nc12` [Example 1.15], the values for the half-maximal inhibitory concentration (IC50) in test [1] and in test [2] were 0.1 nM and 402 nM, respectively.

In the case of `Cc1c(-c2ncco2)nc(N)n2nc(CCN3CCc4c(nnn4C4CC4)C3)nc12` [Example 1.16], the 50% inhibitory concentration (IC50) amounted to 0.3 nM in test [1] and 111 nM in test [2].

On to `Cc1c(-c2ncco2)nc(N)n2nc(CCN3CCc4c(nnn4CC(F)(F)F)C3)nc12` [Example 1.17], for which the figures for the IC50 in test [1] and in test [2] were 1.3 nM and 35.2 nM, respectively.

`Cc1c(-c2ncco2)nc(N)n2nc(CCN3CCc4c(nnn4CC(C)(C)O)C3)nc12` [Example 1.18]: the 50% inhibitory concentration (IC50) is 18.1 nM in test [1] and 694 nM in test [2].

As for `CC(C)c1ncc2n1CCN(CCc1nc3cc(-c4ncco4)nc(N)n3n1)C2` [Example 1.19], the IC50 turned out to be 127 nM in test [1] and 905 nM in test [2].

`Cc1c(-c2cccc(F)c2)nc(N)c2nc(CCN3CCn4c(cnc4C(C)C)C3)nn12` [Example 2.8]: the IC50 in test [1] turned out to be 160 nM; in test [2], 48.1 nM.

For the compound `COc1c(F)cc(F)cc1-c1cc2nc(CCN3CCn4c(cnc4C(C)C)C3)nn2c(N)n1` [Example 2.9], the IC50 worked out at 636 nM in test [1] and 248 nM in test [2].

Take `CC(C)c1ncc2n1CCN(CCc1nc3cc(-c4cc(F)ccc4O)nc(N)n3n1)C2` [Example 2.10]: the figures for the IC50 in test [1] and in test [2] were 1000 nM and 400 nM, respectively.

Turning to `CC(C)c1ncc2n1CCN(CCc1nc3cc(-c4cc(F)ccc4F)nc(N)n3n1)C2` [Example 2.11], the results for the IC50 in test [1] and in test [2] were 246 nM and 178 nM, respectively.

`CC(C)c1ncc2n1CCN(CCc1nc3cc(-c4cc(F)ccc4Cl)nc(N)n3n1)C2` [Example 2.12]: the IC50 stood at 440 nM in test [1] and 215 nM in test [2].

As to `CC(C)c1ncc2n1CCN(CCc1nc3cc(-c4cccc(F)c4)nc(N)n3n1)C2` [Example 2.13], the IC50 in test [1] came out at 35.4 nM; in test [2], 95.5 nM.

Consider `CC(C)c1ncc2n1CCN(CCc1nc3cc(-c4cc(F)cc(F)c4)nc(N)n3n1)C2` [Example 2.14], for which the IC50 in test [1] was 362 nM; in test [2], 223 nM.

`Cc1c(-c2cccc(F)c2)nc(N)n2nc(CCN3CCn4c(cnc4C(C)C)C3)nc12` [Example 2.15]: the IC50 in test [1] came out at 16.4 nM; in test [2], 36.8 nM.

As for `Cc1c(-c2cccc(F)c2)nc(N)n2nc(CCN3CCc4c(nnn4C(C)C)C3)nc12` [Example 2.16], the results for the IC50 in test [1] and in test [2] were 2.3 nM and 73.4 nM, respectively.

Take `CC(C)n1nnc2c1CCN(CCc1nc3cc(-c4cccc(C#N)c4F)nc(N)n3n1)C2` [Example 2.24]: the results for the IC50 in test [1] and in test [2] were 0.9 nM and 73.6 nM, respectively.

For the compound `Cc1c(-c2cncc(C(F)(F)F)c2)nc(N)c2nc(Cc3ccccc3)nn12` [Example 3.22], the IC50 in test [1] was 836 nM; in test [2], 8700 nM.

On to `Cc1c(-c2cccc(Cl)c2)nc(N)c2nc(Cc3ccccc3)nn12` [Example 3.23], for which the IC50 amounted to 2.7 nM in test [1] and 13.6 nM in test [2].

Regarding `Cc1c(-c2cc(Cl)ccc2F)nc(N)c2nc(Cc3ccccc3)nn12` [Example 3.24], the half-maximal inhibitory concentration (IC50) in test [1] amounted to 0.7 nM; in test [2] it was 2.4 nM.

In the case of `Cc1c(-c2cc(F)cc(F)c2)nc(N)c2nc(Cc3ccccc3)nn12` [Example 3.25], the IC50 stood at 1.6 nM in test [1] and 19.8 nM in test [2].

As to `Cc1c(-c2cc(F)cc(F)c2F)nc(N)c2nc(Cc3ccccc3)nn12` [Example 3.26], the values for the IC50 in test [1] and in test [2] were 2.5 nM and 2.7 nM, respectively.

For `COc1ncc(-c2nc(N)c3nc(Cc4ccccc4)nn3c2C)cc1Cl` [Example 3.27], the values for the IC50 in test [1] and in test [2] were 11 nM and 145 nM, respectively.

As to `Cc1c(-c2cc(F)cc(Cl)c2)nc(N)c2nc(Cc3ccccc3)nn12` [Example 3.28], the 50% inhibitory concentration (IC50) in test [1] was determined as 2.9 nM; in test [2] it was 34.4 nM.

For the compound `Cc1c(-c2cccc(F)c2F)nc(N)c2nc(Cc3ccccc3)nn12` [Example 3.29], the results for the half-maximal inhibitory concentration (IC50) in test [1] and in test [2] were 4 nM and 39.4 nM, respectively.

As for `Cc1c(-c2cccc(Cl)c2F)nc(N)c2nc(Cc3ccccc3)nn12` [Example 3.30], the values for the IC50 in test [1] and in test [2] were 7.6 nM and 46.2 nM, respectively.

With `COc1cc(F)cc(-c2nc(N)c3nc(Cc4ccccc4)nn3c2C)c1` [Example 3.31], the IC50 was 6.2 nM in test [1] and 134 nM in test [2].

Take `Cc1c(-c2cncc(Cl)c2)nc(N)c2nc(Cc3ccccc3)nn12` [Example 3.32]: the results for the 50% inhibitory concentration (IC50) in test [1] and in test [2] were 13.1 nM and 147 nM, respectively.

Take `Cc1c(-c2ccc(F)c(Cl)c2)nc(N)c2nc(Cc3ccccc3)nn12` [Example 3.33]: the IC50 in test [1] turned out to be 27.2 nM; in test [2], 117 nM.

As to `Cc1c(-c2cc(F)c(F)cc2F)nc(N)c2nc(Cc3ccccc3)nn12` [Example 3.34], the figures for the IC50 in test [1] and in test [2] were 32.2 nM and 95.8 nM, respectively.

`Cc1ccc(F)cc1-c1nc(N)c2nc(Cc3ccccc3)nn2c1C` [Example 3.35]: the half-inhibitory concentration (IC50) in test [1] amounted to 65.6 nM; in test [2] it was 700 nM.

In the case of `Cc1c(-c2cc(F)c(F)c(F)c2)nc(N)c2nc(Cc3ccccc3)nn12` [Example 3.36], the IC50 in test [1] was determined as 76.5 nM; in test [2] it was 154 nM.

`Cc1c(-c2ccc(F)cc2)nc(N)c2nc(Cc3ccccc3)nn12` [Example 20.3, 2-benzyl-6-(4-fluorophenyl)-5-methyl-[1,2,4]triazolo[1,5-a]pyrazin-8-amine] came in with a half-maximal inhibitory concentration (IC50) in test [1] of 40 nM.

For the compound `Nc1nc(-c2ncco2)c(C2CC2)n2nc(Cc3ccccc3)nc12` [Example 20.4, 2-benzyl-5-cyclopropyl-6-(oxazol-2-yl)-[1,2,4]triazolo[1,5-a]pyrazin-8-amine], in test [1], the half-maximal inhibitory concentration (IC50) was 3.2 nM.

Take `Cc1c(-c2ncco2)nc(N)n2nc(Cn3cc(CCC(C)(C)O)cn3)nc12` [Example 21.3, 4-(1-((5-amino-8-methyl-7-(oxazol-2-yl)-[1,2,4]triazolo[1,5-c]pyrimidin-2-yl)methyl)-1H-pyrazol-4-yl)-2-methylbutan-2-ol]: the IC50 in test [1] came out at 21.5 nM.

`Cc1c(-c2ncco2)nc(N)n2nc(CCc3ccc4c(c3)nnn4C3CC(F)(F)C3)nc12` [Example 22.3, 2-(2-(1-(3,3-Difluorocyclobutyl)-1H-benzo[d][1,2,3]triazol-5-yl)ethyl)-8-methyl-7-(oxazol-2-yl)-[1,2,4]triazolo[1,5-c]pyrimidin-5-amine] gave a half-maximal inhibitory concentration (IC50) in test [1] of 21.5 nM.
